From paper doi:10.1101/2024.08.19.608619, “Discovery of potent SARS-CoV-2 nsp3 macrodomain inhibitors uncovers lack of translation to cellular antiviral response” (bioRxiv, 2024)
Like-named read-outs stand apart in the source and are kept apart here.

Key:
SARS-CoV-2 nsp3-mac1 [1] = target: T1, SARS-CoV-2 nsp3-mac1 (Severe acute respiratory syndrome coronavirus 2, UniProt P0DTD1); test: biochemical; format: biochemical; settings: SARS-CoV-2 nsp3 macrodomain TR-FRET single point
SARS-CoV-2 nsp3-mac1 [2] = target: T1, SARS-CoV-2 nsp3-mac1; test: biochemical; parameters: SARS-CoV-2 nsp3 macrodomain TR-FRET single point, per cent inhibition, n=2
[3] = read-out: perc_inhibition_mean, batch_name=ASAP-0000196-002
[4] = read-out: perc_inhibition_mean, batch_name=ASAP-0000199-002
[5] = read-out: perc_inhibition_mean, batch_name=ASAP-0000200-002

Cn1nc(NC(=O)c2cc3nccn3c(=O)[nH]2)c2nccnc21 [ASAP-0000125]
perc_inhibition_mean (SARS-CoV-2 nsp3-mac1 [1]; concentration 50.0 uM): -1.913% | inhibition at 50 µM (SARS-CoV-2 nsp3-mac1 [2]; read-out: perc_inhibition_mean, batch_name=ASAP-0000125-001): -1.91%

Cn1c(C(=O)NCCNC(=O)c2ccco2)cc2c(=O)n3ccccc3nc21 [ASAP-0000126]
perc_inhibition_mean (SARS-CoV-2 nsp3-mac1 [1]; concentration 50.0 uM): -4.472% | inhibition at 50 µM (SARS-CoV-2 nsp3-mac1 [2]; read-out: perc_inhibition_mean, batch_name=ASAP-0000126-001): -4.47%

CCn1cc(CNc2nc3[nH]cnc3c(=O)[nH]2)nn1 [ASAP-0000127]
perc_inhibition_mean (SARS-CoV-2 nsp3-mac1 [1]; concentration 50.0 uM): -0.991% | inhibition at 50 µM (SARS-CoV-2 nsp3-mac1 [2]; read-out: perc_inhibition_mean, batch_name=ASAP-0000127-001): -0.991%

O=C(NCc1nc(-c2ccco2)n[nH]1)c1cc(=O)n2ncnc2[nH]1 [ASAP-0000128]
perc_inhibition_mean (SARS-CoV-2 nsp3-mac1 [1]; concentration 50.0 uM): -2.599% | inhibition at 50 µM (SARS-CoV-2 nsp3-mac1 [2]; read-out: perc_inhibition_mean, batch_name=ASAP-0000128-001): -2.6%

COCc1cc(CC(=O)Nc2ncnc3[nH]cnc23)no1 [ASAP-0000129]
perc_inhibition_mean (SARS-CoV-2 nsp3-mac1 [1]; concentration 50.0 uM): 2.968% | inhibition at 50 µM (SARS-CoV-2 nsp3-mac1 [2]; read-out: perc_inhibition_mean, batch_name=ASAP-0000129-001): 2.97%

NS(=O)(=O)c1ccccc1CNc1ncnc2[nH]ccc12 [ASAP-0000130]
perc_inhibition_mean (SARS-CoV-2 nsp3-mac1 [1]; concentration 50.0 uM): 3.656% | inhibition at 50 µM (SARS-CoV-2 nsp3-mac1 [2]; read-out: perc_inhibition_mean, batch_name=ASAP-0000130-001): 3.66%

O=C(Nc1ccc(C(=O)NCc2c(C(=O)O)[nH]c3ccccc23)cc1)NC1CC1 [ASAP-0000131]
perc_inhibition_mean (SARS-CoV-2 nsp3-mac1 [1]; concentration 50.0 uM): 86.217% | inhibition at 50 µM (SARS-CoV-2 nsp3-mac1 [2]; read-out: perc_inhibition_mean, batch_name=ASAP-0000131-001): 86.2%

O=C(Nc1cnc2[nH]ncc2c1)C1(c2ccccc2)CC1 [ASAP-0000133]
perc_inhibition_mean (SARS-CoV-2 nsp3-mac1 [1]; concentration 50.0 uM): 3.207% | inhibition at 50 µM (SARS-CoV-2 nsp3-mac1 [2]; read-out: perc_inhibition_mean, batch_name=ASAP-0000133-001): 3.21%

COC(=O)c1cc2c(Oc3ccccc3C#N)ncnc2[nH]1 [ASAP-0000135]
perc_inhibition_mean (SARS-CoV-2 nsp3-mac1 [1]; concentration 50.0 uM): 2.922% | inhibition at 50 µM (SARS-CoV-2 nsp3-mac1 [2]; read-out: perc_inhibition_mean, batch_name=ASAP-0000135-001): 2.92%

O=C(Cn1c(=O)[nH]c2ccccc21)Nc1cnc2[nH]ncc2c1 [ASAP-0000137]
perc_inhibition_mean (SARS-CoV-2 nsp3-mac1 [1]; concentration 50.0 uM): 1.776% | inhibition at 50 µM (SARS-CoV-2 nsp3-mac1 [2]; read-out: perc_inhibition_mean, batch_name=ASAP-0000137-001): 1.78%

O=C(Nc1cnn(C2CCNCC2)c1)c1ncnc2[nH]ccc12 [ASAP-0000138]
perc_inhibition_mean (SARS-CoV-2 nsp3-mac1 [1]; concentration 50.0 uM): -1.896% | inhibition at 50 µM (SARS-CoV-2 nsp3-mac1 [2]; read-out: perc_inhibition_mean, batch_name=ASAP-0000138-001): -1.9%

CC(C)n1cc(S(=O)(=O)Nc2cnc3[nH]ncc3c2)cn1 [ASAP-0000139]
perc_inhibition_mean (SARS-CoV-2 nsp3-mac1 [1]; concentration 50.0 uM): 1.555% | inhibition at 50 µM (SARS-CoV-2 nsp3-mac1 [2]; read-out: perc_inhibition_mean, batch_name=ASAP-0000139-001): 1.55%

Cc1cccc(Cl)c1S(=O)(=O)Nc1cnc2[nH]ncc2c1 [ASAP-0000140]
perc_inhibition_mean (SARS-CoV-2 nsp3-mac1 [1]; concentration 50.0 uM): -0.254% | inhibition at 50 µM (SARS-CoV-2 nsp3-mac1 [2]; read-out: perc_inhibition_mean, batch_name=ASAP-0000140-001): -0.254%

Cn1c(C(=O)NCCn2cccc2)cc2c(=O)n3ccccc3nc21 [ASAP-0000188]
perc_inhibition_mean (SARS-CoV-2 nsp3-mac1 [1]; concentration 50.0 uM): 2.262% | inhibition at 50 µM (SARS-CoV-2 nsp3-mac1 [2]; read-out: perc_inhibition_mean, batch_name=ASAP-0000188-001): 2.26%

CCn1cc(CNc2cc3c(O)ncnc3cn2)nn1 [ASAP-0000189]
perc_inhibition_mean (SARS-CoV-2 nsp3-mac1 [1]; concentration 50.0 uM): 1.671% | inhibition at 50 µM (SARS-CoV-2 nsp3-mac1 [2]; read-out: perc_inhibition_mean, batch_name=ASAP-0000189-001): 1.67%

CSc1ccccc1NC(=O)c1ncnc2[nH]ccc12 [ASAP-0000190]
perc_inhibition_mean (SARS-CoV-2 nsp3-mac1 [1]; concentration 50.0 uM): -5.805% | inhibition at 50 µM (SARS-CoV-2 nsp3-mac1 [2]; read-out: perc_inhibition_mean, batch_name=ASAP-0000190-001): -5.8%

CSc1cccc(NC(=O)c2ncnc3[nH]ccc23)c1 [ASAP-0000192]
perc_inhibition_mean (SARS-CoV-2 nsp3-mac1 [1]; concentration 50.0 uM): -4.669% | inhibition at 50 µM (SARS-CoV-2 nsp3-mac1 [2]; read-out: perc_inhibition_mean, batch_name=ASAP-0000192-001): -4.67%

OC[C@@]1(Cc2ccc(F)cc2)CCN(c2ncnc3[nH]ccc23)C1 [ASAP-0000194]
perc_inhibition_mean (SARS-CoV-2 nsp3-mac1 [1]; concentration 50.0 uM): 5.07% | inhibition at 50 µM (SARS-CoV-2 nsp3-mac1 [2]; read-out: perc_inhibition_mean, batch_name=ASAP-0000194-001): 5.07%

Cc1ncc(NCc2cnc3c(c2)NC(=O)CO3)cc1Cl [ASAP-0000195]
perc_inhibition_mean (SARS-CoV-2 nsp3-mac1 [1]; concentration 50.0 uM): -0.368% | inhibition at 50 µM (SARS-CoV-2 nsp3-mac1 [2]; read-out: perc_inhibition_mean, batch_name=ASAP-0000195-001): -0.368%

c1cc(-c2nnc(Sc3ncnc4[nH]ccc34)[nH]2)ccn1 [ASAP-0000196]
perc_inhibition_mean (SARS-CoV-2 nsp3-mac1 [1]; concentration 50.0 uM): 5.47% | perc_inhibition_mean (SARS-CoV-2 nsp3-mac1 [1]; concentration 50.0 uM, n=2): 10.682% | perc_inhibition_mean (SARS-CoV-2 nsp3-mac1 [1]; concentration 100.0 uM, n=2): 3.318% | inhibition at 50 µM (SARS-CoV-2 nsp3-mac1 [2]; read-out: perc_inhibition_mean, batch_name=ASAP-0000196-001): 5.47% | inhibition at 50 µM (SARS-CoV-2 nsp3-mac1 [2]; [3]): 10.7% | inhibition at 100 µM (SARS-CoV-2 nsp3-mac1 [2]; [3]): 3.32%

c1coc(CNc2ncnc3[nH]cnc23)c1 [ASAP-0000198]
perc_inhibition_mean (SARS-CoV-2 nsp3-mac1 [1]; concentration 50.0 uM): 2.634% | inhibition at 50 µM (SARS-CoV-2 nsp3-mac1 [2]; read-out: perc_inhibition_mean, batch_name=ASAP-0000198-001): 2.63%

c1nc(-c2nc(-c3cc(C4CC4)[nH]n3)no2)c2cc[nH]c2n1 [ASAP-0000199]
perc_inhibition_mean (SARS-CoV-2 nsp3-mac1 [1]; concentration 50.0 uM): -2.809% | perc_inhibition_mean (SARS-CoV-2 nsp3-mac1 [1]; concentration 50.0 uM, n=2): -4.799% | perc_inhibition_mean (SARS-CoV-2 nsp3-mac1 [1]; concentration 100.0 uM, n=2): -2.454% | inhibition at 50 µM (SARS-CoV-2 nsp3-mac1 [2]; read-out: perc_inhibition_mean, batch_name=ASAP-0000199-001): -2.81% | inhibition at 50 µM (SARS-CoV-2 nsp3-mac1 [2]; [4]): -4.8% | inhibition at 100 µM (SARS-CoV-2 nsp3-mac1 [2]; [4]): -2.45%

Cc1cc(C(F)(F)F)nn1CCNc1ncnc2[nH]ccc12 [ASAP-0000200]
perc_inhibition_mean (SARS-CoV-2 nsp3-mac1 [1]; concentration 50.0 uM): 4.602% | perc_inhibition_mean (SARS-CoV-2 nsp3-mac1 [1]; concentration 50.0 uM, n=2): -3.037% | perc_inhibition_mean (SARS-CoV-2 nsp3-mac1 [1]; concentration 100.0 uM, n=2): -2.206% | inhibition at 50 µM (SARS-CoV-2 nsp3-mac1 [2]; read-out: perc_inhibition_mean, batch_name=ASAP-0000200-001): 4.6% | inhibition at 50 µM (SARS-CoV-2 nsp3-mac1 [2]; [5]): -3.04% | inhibition at 100 µM (SARS-CoV-2 nsp3-mac1 [2]; [5]): -2.21%

CC[C@@H]1C[C@@H](C(=O)Nc2ncnc3[nH]c(C)c(C)c23)CCO1 [ASAP-0000201]
perc_inhibition_mean (SARS-CoV-2 nsp3-mac1 [1]; concentration 50.0 uM): 12.08% | inhibition at 50 µM (SARS-CoV-2 nsp3-mac1 [2]; read-out: perc_inhibition_mean, batch_name=ASAP-0000201-001): 12.1%
